Data: BindingDB's records for patent US20250270215 (Chiesi Farmaceutici, 2025)
pIC50: −log10 of the molar value.

Target: T1, TGF-beta receptor type-1 (Homo sapiens, UniProt P36897)
T1 sequence (P36897 whole entry): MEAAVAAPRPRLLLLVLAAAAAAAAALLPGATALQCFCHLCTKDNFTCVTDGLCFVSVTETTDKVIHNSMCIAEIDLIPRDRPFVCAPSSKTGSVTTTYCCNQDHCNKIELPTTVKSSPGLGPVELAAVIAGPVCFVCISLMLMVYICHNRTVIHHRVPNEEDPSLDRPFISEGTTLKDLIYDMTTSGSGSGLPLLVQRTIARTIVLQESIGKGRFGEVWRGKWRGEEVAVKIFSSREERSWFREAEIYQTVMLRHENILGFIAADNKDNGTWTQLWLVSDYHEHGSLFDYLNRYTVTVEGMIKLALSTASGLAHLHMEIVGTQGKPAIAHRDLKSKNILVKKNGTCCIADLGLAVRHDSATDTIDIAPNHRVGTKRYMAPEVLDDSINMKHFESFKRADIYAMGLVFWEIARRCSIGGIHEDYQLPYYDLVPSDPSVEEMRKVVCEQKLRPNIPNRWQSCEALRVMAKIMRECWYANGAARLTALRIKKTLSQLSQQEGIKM
Assay: In Vitro Assay
Procedure: Briefly, the kinase reaction was performed by incubating 2.6 nM of the purified, commercially available human ALK5 (recombinant TGF β1 N-term GST-tagged, 80-end), a final concentration of TGFβ1 peptide 94.5 μM (Promega, T36-58) and ultra-pure ATP (Promega V915B). The ATP concentration was set at the Km value (concentration of substrate which permits the enzyme to achieve half maximal velocity (Vmax)) of ALK5 (5 μM). All reactions/incubations were performed at 25° C. Compound and ALK5 kinase were mixed and incubated for 15 mins. Reactions were initiated by addition of ATP at a final concentration in the assay of 0.83 μM. After an incubation of 150 min, the reaction was stopped, and ADP production detected with ADP-Glo kit according to manufacturer's indications. The assay was performed in 384-well format and was validated using a selection of reference compounds that was tested in 11 point concentration-response curve.

SMILES | pIC50
Fc1ccc(Cl)cc1-c1nc2n(c1-c1ccc3ncnn3c1)CCN2 [US20250270215, Example 2] | > 9.00
Cc1csc(-c2nc3n(c2-c2ccc4ncnn4c2)CCN3)n1 [US20250270215, Example 3] | > 9.00
Cc1cccc(-c2nc3n(c2-c2cc4cnccc4s2)CC(C(=O)O)N3)n1 (stereo not drawn) [US20250270215, Example 4] | > 9.00
Clc1cccc(-c2nc3n(c2-c2ccc4ncnn4c2)CCN3)n1 [US20250270215, Example 12] | > 9.00
Clc1cccc(-c2nc3n(c2-c2cc4cnccc4s2)CCN3)n1 [US20250270215, Example 13] | > 9.00
Fc1ccc(Cl)cc1-c1nc2n(c1-c1cc3cnccc3s1)CCN2 [US20250270215, Example 14] | > 9.00
Cc1cccc(-c2nc3n(c2-c2ccc4nsnc4c2)CCN3)n1 [US20250270215, Example 17] | > 9.00
Cc1cccc(-c2nc3n(c2-c2ccc4nonc4c2)CCN3)n1 [US20250270215, Example 18] | > 9.00
